Several values for one entry are separate records, joined by “and”; a condition that tells them apart may be missing. Identical values can stand only once. Toxic doses and inconclusive results are not listed.

Data on 22 molecules can be found in PubChem BioAssay AID330 (DTP/NCI, 2004).

This test deals with P388 leukemia ip, CD2F1 mice, survival T/C. The test is described as follows: NCI In Vivo Anticancer Drug Screen. Data for tumor model P388 Leukemia (intraperitoneal) in CD2F1 (CDF1) mice. To be noted: endpoint: median survival time, higher = longer survival. Put shortly:
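Mice carrying the transplanted tumor received test compound or vehicle. Survival was recorded in each group, and the value is the treated-group measurement divided by that of the vehicle-treated control group.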

Setting [1] is: dose: 100.0 mg/kg/injection, schedule: Q01DX009 (ip), vehicle: saline with Tween-80.
[2] abbreviates: dose: 200.0 mg/kg/injection, schedule: Q01DX009 (ip), vehicle: saline with Tween-80.
[3] abbreviates: dose: 60.0 mg/kg/injection, schedule: Q01DX005 (ip), vehicle: saline with Tween-80.
Where [4] appears, read: dose: 120.0 mg/kg/injection, schedule: Q01DX005 (ip), vehicle: saline with Tween-80.
[5] abbreviates: dose: 240.0 mg/kg/injection, schedule: Q01DX005 (ip), vehicle: saline with Tween-80.
The mark [6] stands for this setting: dose: 50.0 mg/kg/injection, schedule: Q04DX003 (ip), vehicle: saline with Tween-80.
Where [7] appears, read: dose: 100.0 mg/kg/injection, schedule: Q04DX003 (ip), vehicle: saline with Tween-80.
The mark [8] stands for this setting: dose: 200.0 mg/kg/injection, schedule: Q04DX003 (ip), vehicle: saline with Tween-80.
The mark [9] stands for this setting: dose: 50.0 mg/kg/injection, schedule: Q01DX005 (ip), vehicle: saline with Tween-80.
Setting [10] is: dose: 100.0 mg/kg/injection, schedule: Q01DX005 (ip), vehicle: saline with Tween-80.

On to `Nc1nccc2c1ncn2C1OC(CO)C(O)C1O` (centres undefined), for which the T/C is 110 % of control (dose: 4.67 mg/kg/injection, schedule: Q03HX024 (ip), vehicle: saline with Tween-80); 114 % of control (dose: 4.69 mg/kg/injection, schedule: Q03HX024 (ip), vehicle: saline with Tween-80); 111 % of control and 112 % of control (dose: 9.38 mg/kg/injection, schedule: Q03HX024 (ip), vehicle: saline with Tween-80); 94 % of control and 97 % of control (dose: 12.5 mg/kg/injection, schedule: Q01DX009 (ip), vehicle: saline with Tween-80); 97 % of control (dose: 18.75 mg/kg/injection, schedule: Q03HX024 (ip), vehicle: saline with Tween-80); 92 % of control and 93 % of control (dose: 25.0 mg/kg/injection, schedule: Q01DX009 (ip), vehicle: saline with Tween-80). Further, the T/C was 112 % of control and 117 % of control (dose: 37.5 mg/kg/injection, schedule: Q03HX024 (ip), vehicle: saline with Tween-80); 88 % of control and 94 % of control under setting [1]; 86 % of control under setting [2].

As to `N#CC(=O)Nc1ccc(Cl)cc1`, the T/C runs as follows: (dose: 3.75 mg/kg/injection, schedule: Q01DX005 (ip), vehicle: saline with Tween-80) 103 % of control; (dose: 7.5 mg/kg/injection, schedule: Q01DX005 (ip), vehicle: saline with Tween-80) 111 % of control; (dose: 15.0 mg/kg/injection, schedule: Q01DX005 (ip), vehicle: saline with Tween-80) 109 % of control.

On to `C=C(C)C(=O)OC1CC2(C)OC2CCC2(C)OC2C2OC(=O)C(=C)C12` (centres undefined), for which the T/C was 108 % of control (dose: 10.0 mg/kg/injection, schedule: Q01DX005 (ip), vehicle: Klucel (hydroxypropylcellulose) (HPC)); 106 % of control (dose: 20.0 mg/kg/injection, schedule: Q01DX005 (ip), vehicle: Klucel (hydroxypropylcellulose) (HPC)); 100 % of control (dose: 40.0 mg/kg/injection, schedule: Q01DX005 (ip), vehicle: Klucel (hydroxypropylcellulose) (HPC)).

Turning to `Nc1ccc2cc(Cl)ccc2c1`, the T/C (dose: 16.5 mg/kg/injection, schedule: Q01DX009 (ip), vehicle: saline with Tween-80) was 90 % of control.

For `C[C@@H]1C(=O)O[C@H]2[C@H]1CC[C@@]1(C)C=C(Cl)C(=O)[C@@H](C)[C@H]21`, the T/C reads like this: (dose: 50.0 mg/kg/injection, schedule: Q04DX002 (ip), vehicle: saline with Tween-80) 100 % of control; (dose: 100.0 mg/kg/injection, schedule: Q04DX002 (ip), vehicle: saline with Tween-80) 117 % of control.

In the case of `CCOC(=O)CCCCCOC1CCCCO1` (centres undefined), the T/C by setting is: under setting [3], 98 % of control; under setting [4], 97 % of control; under setting [5], 103 % of control.

In the case of `CC(=O)/C(C(=N)C(=O)c1ccccc1)=C(\C)O`, the T/C was 96 % of control under setting [3], 98 % of control under setting [4] and 99 % of control under setting [5].

On to `CCC1(CCC(C)C)C(=O)N(CCCl)C(=O)N(CCCl)C1=O`, for which the T/C (dose: 50.0 mg/kg/injection, schedule: Q01DX009 (ip), vehicle: saline with Tween-80) is 100 % of control; the T/C under setting [1] is 105 % of control; the T/C under setting [2] was 96 % of control.

For the molecule `CN(C)CCN1CC2Cc3ccccc3C1c1ccccc12` (centres undefined), the T/C runs as follows: (dose: 100.0 mg/kg/injection, schedule: Q04DX003 (ip), vehicle: Klucel (hydroxypropylcellulose) (HPC)) 102 % of control; (dose: 200.0 mg/kg/injection, schedule: Q04DX003 (ip), vehicle: Klucel (hydroxypropylcellulose) (HPC)) 102 % of control.

As for `C[n+]1cccc(C2=CCCC2)c1`, the T/C is 109 % of control (dose: 3.13 mg/kg/injection, schedule: Q01DX009 (ip), vehicle: saline); 100 % of control (dose: 6.25 mg/kg/injection, schedule: Q01DX009 (ip), vehicle: saline); 100 % of control (dose: 12.5 mg/kg/injection, schedule: Q01DX009 (ip), vehicle: saline); 102 % of control (dose: 12.5 mg/kg/injection, schedule: Q04DX003 (ip), vehicle: water); 100 % of control (dose: 25.0 mg/kg/injection, schedule: Q01DX009 (ip), vehicle: saline); 93 % of control (dose: 25.0 mg/kg/injection, schedule: Q04DX003 (ip), vehicle: saline with Tween-80). The T/C is 97 % of control (dose: 25.0 mg/kg/injection, schedule: Q04DX003 (ip), vehicle: water); 92 % of control under setting [6]; 97 % of control under setting [7]; 105 % of control under setting [8].

As for `CC(=O)N(C)N`, the T/C is 107 % of control (dose: 60.0 mg/kg/injection, schedule: Q01DX005 (ip), vehicle: saline); 102 % of control (dose: 120.0 mg/kg/injection, schedule: Q01DX005 (ip), vehicle: saline); 93 % of control (dose: 240.0 mg/kg/injection, schedule: Q01DX005 (ip), vehicle: saline).

Take `O=S1(=O)N=C(N2CCCCC2)c2ccccc21`: the T/C reads like this: under setting [9], 99 % of control; under setting [10], 96 % of control; (dose: 200.0 mg/kg/injection, schedule: Q01DX005 (ip), vehicle: saline with Tween-80) 97 % of control.

Turning to `COc1cc2c(c(OC)c1OC)-c1ccc(OC)c(=O)cc1[C@@H](N(C)C=O)CC2`, the T/C (dose: 1.25 mg/kg/injection, schedule: Q01DX009 (ip), vehicle: Klucel (hydroxypropylcellulose) (HPC)) is 171 % of control.

As for `Nc1nnc(CCC(=O)Nc2ccccc2Cl)o1`, the T/C was 98 % of control under setting [3], 101 % of control under setting [4] and 97 % of control under setting [5].

On to `CCOC(=O)C1CC1c1c(C)c2cc3[nH]c(cc4nc(cc5nc(cc1[nH]2)C(C)=C5CCC(=O)OC)C(CCC(=O)OC)=C4C)c(C)c3C1CC1C(=O)OCC` (centres undefined), for which the T/C reads like this: under setting [9], 93 % of control; under setting [10], 86 % of control.

In the case of `CN(C)CCC#N`, the T/C was 117 % of control (dose: 50.0 mg/kg/injection, schedule: Q01DX009 (ip), vehicle: saline); 105 % of control (dose: 100.0 mg/kg/injection, schedule: Q01DX009 (ip), vehicle: saline); 100 % of control (dose: 200.0 mg/kg/injection, schedule: Q01DX009 (ip), vehicle: saline).

Regarding `CC(C)(C)N1CCC1CN` (centres undefined), the T/C reads like this: (dose: 25.0 mg/kg/injection, schedule: Q01DX005 (ip), vehicle: saline) 90 % of control; (dose: 50.0 mg/kg/injection, schedule: Q01DX005 (ip), vehicle: saline) 100 % of control; (dose: 100.0 mg/kg/injection, schedule: Q01DX005 (ip), vehicle: saline) 104 % of control; (dose: 200.0 mg/kg/injection, schedule: Q01DX005 (ip), vehicle: saline) 100 % of control.

As to `CSc1ccc2c(NCCCCCCCCNc3c4ccccc4nc4cc(SC)ccc34)c3ccccc3nc2c1`, the T/C is, setting by setting: (dose: 0.63 mg/kg/injection, schedule: Q01DX009 (ip), vehicle: other) 117 % of control; (dose: 1.25 mg/kg/injection, schedule: Q01DX009 (ip), vehicle: other) 119 % of control; (dose: 2.5 mg/kg/injection, schedule: Q01DX009 (ip), vehicle: other) 123 % of control; (dose: 10.0 mg/kg/injection, schedule: Q01DX009 (ip), vehicle: other) 122 % of control.

`CC(=O)SCCCCl`: the T/C runs as follows: under setting [6], 100 % of control; under setting [7], 109 % of control; under setting [8], 109 % of control.

For the molecule `Nc1ccc(CNC(=O)COc2cccc(Cl)c2)cc1`, the T/C is, setting by setting: (dose: 100.0 mg/kg/injection, schedule: Q04DX002 (ip), vehicle: Klucel (hydroxypropylcellulose) (HPC)) 102 % of control; (dose: 200.0 mg/kg/injection, schedule: Q04DX002 (ip), vehicle: Klucel (hydroxypropylcellulose) (HPC)) 108 % of control; (dose: 400.0 mg/kg/injection, schedule: Q04DX002 (ip), vehicle: Klucel (hydroxypropylcellulose) (HPC)) 96 % of control.

For the molecule `N#Cc1[nH]ncc1[N+](=O)[O-]`, the T/C (dose: 25.0 mg/kg/injection, schedule: Q01DX001 (ip), vehicle: saline with Tween-80) is 100 % of control; the T/C (dose: 50.0 mg/kg/injection, schedule: Q01DX001 (ip), vehicle: saline with Tween-80) was 106 % of control; the T/C (dose: 100.0 mg/kg/injection, schedule: Q01DX001 (ip), vehicle: saline with Tween-80) is 101 % of control.

Take `CC12OC(=O)CC1OC2(c1ccccc1)c1ccccc1` (centres undefined): the T/C is 96 % of control under setting [3], 93 % of control under setting [4] and 90 % of control under setting [5].
